Test results published in PMC12051620, “Molecular basis underlying the specificity of an antagonist AA92593 for mammalian melanopsins” (The Journal of Biological Chemistry, 2025).

Molecular target: lanceolatum melanopsin F189^ECL2W/I207^5.42F mutant (Branchiostoma lanceolatum, UniProt A0A2Z4C1D4, F188W/I204F)
Assay: GsX GloSensor assay with Gsα/q11
Type: cell-based
From the text: We assessed the effect of the antagonist on the mutants using the GsX GloSensor assay with Gsα/q11. […] Furthermore, the double substitution F189^ECL2W/I207^5.42F further increased the susceptibility of the lanceolatum melanopsin to the antagonist by ∼88% (Fig. 7, G, H, and I). The AA92593-induced inhibition of the double mutant F189^ECL2W/I207^5.42F was as efficient as that of human melanopsin (Fig. 7I). […] Taken together, the introduction of Trp-189^ECL2 and Phe-207^5.42 rendered lanceolatum melanopsin highly sensitive to the antagonist (Fig. 7, G, H, and I).
For GloSensor assay, opsins, GloSensor assay sensor (coded by pGlo-22F), and NanoBiT-tagged G proteins were transiently expressed in COS-1 cells (kindly provided from Dr David Farrens, Oregon Health and Science University) using PEI as described previously ([24], [52]). For the GsX GloSensor assay ([12], [13]), each well of a 96-well assay plate (Corning) was transfected with 50 ng opsin plasmid, 16.7 ng G protein plasmid, 50 ng pGlo-22F plasmid (Promega), and 500 ng PEI in 25 μl Opti-mem and 75 μl Dulbecco's modified Eagle's medium (D-MEM). For NanoBiT G protein dissociation assay, each well of a 96-well assay plate was transfected with 50 ng opsin plasmid, 5 ng Lg-BiT inserted Gqα (Gqα-LgBiT) plasmid, 25 ng Gβ1 plasmid, 25 ng Sm-BiT fused Gγ2 plasmid, 5 ng RIC8A plasmid, and 500 ng PEI in 25 μl Opti-mem and 75 μl D-MEM. For GFP-fluorescence microscopy, a 35-mm cell culture dish (IWAKI) was transfected with 2 μg melanopsin-GFP plasmid and 8 μg PEI in 400 μl Opti-mem and 1.2 ml D-MEM. […]
The transfected COS-1 cells were incubated at 37 °C, 5% CO2 for 2 days, and the medium was aspirated and exchanged with 50 μl of HBSS (145 mM NaCl, 10 mM D-glucose, 5 mM KCl, 1 mM MgCl2, 1.7 mM CaCl2, 1.5 mM NaHCO3, 10 mM Hepes, pH 7.4), containing 33.3, 20, 10, 2, 0.2, 0.02, 0.002, or 0 μM AA92593, 0.5% dimetyl sulfoxide (DMSO), and 4% (vol/vol) GloSensor cAMP reagent stock solution. […] Then, the cells were incubated at room temperature for 1 h, and luminescence changes were monitored. After incubation of the cells with AA92593, luminescence measurement was interrupted, the plate was ejected, and the cells were added with 50 μl of HBSS containing 0.2 μM 9-cis-retinal. […] Luminescence was measured using GM-2000 or GM-3510 microplate reader (Promega). Luminescence level of each well was measured every 30 s with integration time of 0.6 to 0.9 s. To illuminate opsins, luminescence measurement was interrupted, the plate was ejected, and the plate was illuminated by white light with CN-160 LED video light (light intensity, ∼9 mW/cm^2) (NEEWER). […] After illumination, luminescence measurement was resumed. The measured luminescence levels were normalized to the level at the starting point (time = 0 min). […]

[1] = relative peak cAMP response vs no AA92593

Chain of lanceolatum melanopsin F189^ECL2W/I207^5.42F mutant (A0A2Z4C1D4 entry or part of it F188W/I204F): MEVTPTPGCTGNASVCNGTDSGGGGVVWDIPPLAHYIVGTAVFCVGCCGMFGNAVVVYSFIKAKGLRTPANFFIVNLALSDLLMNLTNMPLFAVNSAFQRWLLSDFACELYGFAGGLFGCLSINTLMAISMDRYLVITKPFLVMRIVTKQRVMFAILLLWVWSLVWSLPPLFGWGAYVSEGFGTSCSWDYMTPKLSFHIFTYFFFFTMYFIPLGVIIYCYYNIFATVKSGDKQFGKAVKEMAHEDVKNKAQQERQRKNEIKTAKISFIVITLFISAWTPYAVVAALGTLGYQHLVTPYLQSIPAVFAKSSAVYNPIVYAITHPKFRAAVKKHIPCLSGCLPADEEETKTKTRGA

## COc1ccc(S(=O)(=O)N2CCCCC2)cc1C [AA92593]
  Hill fitting parameter rate of dose-response curve: −0.84 ± 0.75
  IC50: 1400 ± 880 nM
[1]
  Hill fitting parameter max of dose-response curve: 107.65 ± 12.6
  Hill fitting parameter min of dose-response curve: −5.22 ± 4.53
